Entries after “also recorded” stand apart in the source; their conditions may differ.
Assays:
[1] = Tasting on fried potato snack product; conditions: 35% fat, cheese seasoning
Description: (§1) The following formulations were prepared and tasted by trained panelists.
A snack product consisting of a fried potato base, containing 35% fat and flavored with cheese seasoning containing salt, MSG, dairy, organic acids, sugars, and a flavour formulation. The following compounds were added to the snack product at the indicated levels and the tasting results are reported: […]

[2] = Tasting on air expanded base; conditions: 3% fat, cheese seasoning
Description: as §1
An air expanded base (Rice, wheat, Tapioca, potato, salt, sugar, modified starch), containing 3% fat and flavored with cheese seasoning containing salt, MSG, dairy, organic acids, sugars and flavor. The following compounds were added to the base at the indicated levels and the tasting results are reported: […]

Tasting in beef jus = conditions: 40 PPB in beef jus
Description: as §1
(§2) Samples were prepared and evaluated by expert tasters. Tasters were asked to describe the samples focusing on authentic taste, mouthfeel, fullness, salivation, salty-ness, umami, sweetness, juiciness, richness, long lastingness and fattiness.

[3] = Tasting in low fat mayonnaise; conditions: 0.5 ppm in low fat mayonnaise (27% fat)
Description: as §1
Low fat Mayonnaise (27% Fat, 9% carbohydrates (of which 5% sugar), 1.4% salt)
(§3) Samples were prepared and evaluated by expert tasters. Tasters were asked to describe the samples focusing on authentic taste, mouthfeel, fullness, salty-ness, salivation, umami, sweetness, juiciness, richness, long lastingness and fattiness.
Calve 60% Reduced Fat Mayonnaise
Base is Calve Mayonnaise 60% reduced fat (market Product)
as §2
Low fat Mayonnaise (27% Fat)

[4] = Tasting in low fat salad dressing; conditions: 0.5 ppm in low fat salad dressing (13.6% fat)
Description: as §1
low fat salad dressing (13.6% Fat, 8%, carbohydrates (of which 5.3% sugar))
as §3
Calve Salad Dressing Low Fat (13.6% Fat):
Base is Calve salad dressing (market product)
as §2
Low fat salad dressing (13.6% Fat)

Tasting in cheese sauce = conditions: 0.5 PPM in cheese sauce 5% fat 1.6% salt
Description: as §1
Cheese sauce: 5% fat 1.6% salt
as §2
Cheese Sauce: 5% Fat 1.6% Salt

[5] = Tasting in chicken bouillon; conditions: 0.7% salt, 0.5% fat
Description: as §1
Standard Chicken bouillon base, 0.7% salt, 0.5% fat
as §2
Test in Soups and Bouillons
Standard Chicken Bouillon Base

[6] = Tasting in spreadable cheese; conditions: 0.5 PPM in spreadable cheese (Eru)
Description: as §1, §3
Test on “Eru Prestige” Spreadable Cheese
Base is Eru prestige (market product)
as §2

Tasting in fish sauce = conditions: 0.5 ppm in pure fish sauce (27% salt)
Description: as §1
(§4) Salt level pure product between 5-40%
(§5) Salt level in application 0.3-1.0%
as §2

Tasting in soy sauce = conditions: 0.5 ppm in pure salt reduced kikoman soy sauce (9% salt)
Description: as §1, §4, §5, §3
Test on Kikkoman Soy Sauce Low Salt
Base is Kikkoman soy sauce
as §2

[7] = Test in pineapple flavoured drink; conditions: 1 ppm; water, 8% sugar, 0.1% citric acid, pineapple flavour 0.03%
Description: as §3
Test in Pineapple Flavoured Drink:
Base is water, 8% sugar, 0.1% citric acid and proprietary pineapple flavour at 0.03%
(§6) Samples were evaluated by expert tasters. Tasters were asked to describe the samples focusing on authentic taste, mouthfeel, fullness, salty-ness, salivation, umami, sweetness, juiciness, richness, long lastingness and fattiness.

[8] = Tasting in strawberry flavoured sugar sweetened yoghurt; conditions: 2 ppm, 1.5% fat yoghurt, 8% sucrose, strawberry flavour 0.015%
Description: Strawberry Flavoured Sugar Sweetened Yoghurt
In a 1.5% fat yoghurt base, sweetened with 8% sucrose by weight, flavoured with a proprietary strawberry flavour @ 0.015% several different N-acyl aminoacids were added.
as §3
Test in a Strawberry Yoghurt
Base: Yoghurt 1.5% fat yoghurt, 8% sucrose, proprietary strawberry flavour @ 0.015%
(§7) Samples were evaluated by expert tasters. Tasters were asked to describe the samples focusing on authentic taste, mouthfeel, fullness, salivation, salty-ness, umami, sweetness, juiciness, richness, long lastingness and fattiness.

[9] = Tasting in vanilla milk 0.15% fat; conditions: 1 ppm, 4% sucrose, Vaniline 10 ppm + vanilla extract 0.03%
Description: as §3
Base: Milk 0.15% fat, sweetened with 4% sucrose by weight, flavoured with proprietary
Vaniline flavour @ 10 ppm+Vanilla ext. @ 0.03%
as §6
Comparison in a Vanilla Milk Drink
Vaniline @ 10 ppm+Vanilla extract @ 0.03%
Base: Milk 0.15% fat, sweetened with 4% sucrose by weight, flavoured with proprietary Vaniline @ 10 ppm+Vanilla extract @ 0.03%

[10] = Test in pear flavoured drink; conditions: 1 ppm; water, 7% sugar (8% elsewhere in the source), 0.1% citric acid, pear flavour 0.025%
Description: as §3
Test in Pear Flavoured Drink:
Base: water, 7% sugar, 0.1% citric acid, proprietary pear flavour at 0.025%
as §6
Comparison in a Pear Drink
Base is water, 8% sugar, 0.1% citric acid, proprietary pear flavour at 0.025%

[11] = Tasting in strawberry drink; conditions: 0.5 ppm; 7% sucrose, 0.1% citric acid, strawberry flavour 0.015%
Description: as §3
Comparison in a Strawberry Drink
Base is 7% sucrose, 0.1% citric acid, and a proprietary strawberry flavour @ 0.015%
as §6
Base is water, 7% sucrose, 0.1% citric acid, proprietary strawberry flavour @ 0.015%
as §7
Test in a Strawberry Drink
Base is 7% sucrose, 0.1% citric acid, proprietary strawberry flavour @ 0.015%

Structure (SMILES)	tasting result ([1]; 0.5 ppm on fried potato snack)	tasting result ([1]; 1 ppm on fried potato snack)	tasting result ([2]; 0.5 ppm on air expanded base)	tasting result ([2]; 1 ppm on air expanded base)	tasting result (Tasting in beef jus)	tasting result [3]	tasting result [4]	tasting result (Tasting in cheese sauce)	tasting result ([5]; 0.2 PPM in chicken bouillon base)	tasting result ([5]; 0.5 PPM in chicken bouillon base)	tasting result [6]	tasting result (Tasting in fish sauce)	tasting result (Tasting in soy sauce)	tasting result [7]	tasting result [8]	tasting result [9]	tasting result [10]	tasting result [11]
CCCCCCCC/C=C\CCCCCCCC(=O)NC1(C(=O)O)CC1 [C18:1-ACCA, N-oleoyl 1-amino-cyclopropyl carboxylic acid]	Increased salty	Increased Umami, salty	Increased salty	Increased Umami, salty	more salty, fatty, total profile is enhanced	nicely balanced compositions with a full mouthfeel and a more eggy taste; also recorded: Nice balanced, full mouthfeel, increased eggyness	more mouthfeel with body and less acidic; also recorded: Increased mouthfeel body less acidic	Strong umami, cheese bite, expanding	Saltier, Stronger and more umami	More body and fatty notes, salivating and good aftertaste	Strong umami, lingering cheese bite	strong saltiness lingering and with a strong body and mouthfeel	strong upfront saltiness lingering, very strong saltiness					
CCCCC/C=C\C/C=C\CCCCCCCC(=O)N[C@@H](CC(N)=O)C(=O)O [C18:2-asn, N-linoleoyl-Asn]														very ripe, jammy, long lasting, authentic	green fresh, nice, fatty nice fuller	sweeter more fatty round	very ripe, authentic pear, very juicy, long lasting	fuller, sweeter, jammy aftertaste, long lasting
